We go through three compounds from paper PMC8225519, “A semi-mechanistic exposure–response model to assess the effects of verinurad, a potent URAT1 inhibitor, on serum and urine uric acid in patients with hyperuricemia-associated diseases” (Journal of Pharmacokinetics and Pharmacodynamics, 2021).

As a reminder, the EC50 is the concentration that produces a half-maximal response.

Where “and” joins values, the source holds several entries; their conditions need not be identical. Equal values may be shown once. Entries after “also recorded” stand apart in the source; their conditions may differ. Read-outs that look alike come from different tables or passages of the source.

The target of series [1] is T1, xanthine oxidase (XO) (Homo sapiens, UniProt P47989).
T1 construct: from tissue
The arrangement: method as in Aksenov et al. 2018 [23]. The following applies: fixed, not estimated; ref Aksenov et al. 2018 [23]; cited from earlier work.

Series [2] addresses T1, xanthine oxidase (XO). The series is described as follows: Semi-mechanistic exposure-response uric acid model: XOI inhibition of uric acid production rate (clinical sUA/uUA data). The class given is in vivo.
Source text: (§1) All available clinical data from studies where modified release (MR4) or extended release (ER8) verinurad formulations were used in the present analysis, comprising 12 clinical studies of verinurad and including single ascending dose (SAD), multiple ascending dose (MAD), drug-drug interaction (DDI), and several phase 2a studies in several patient populations. […] In total, 434 individuals were incorporated in the integrated analysis.
(§2) To model the uric acid in circulation and urine, a semi-mechanistic model of uric acid disposition was used as a structural model [23], and is reproduced here for the reader’s convenience.
The key kinetic processes that constitute mass balance of uric acid in the body are production of uric acid, intestinal clearance, and renal clearance. The rate of change (mg/h) of the amount of uric acid in the systemic compartment A1 (mg) is given by the differential equation:1 dA1/dt=RP-RI-RR, where RP is the production rate, RI is intestinal elimination rate and RR is the renal excretion rate. The rate of intestinal elimination of uric acid (mg/h) is described by a first order kinetic process with respect to concentration of uric acid in the systemic compartment CUA (mg/L) according to:2 RI=CLI∗CUA where CLI is the intestinal clearance of uric acid (L/h). Concentration of uric acid in the systemic compartment is given by:3 CUA=A1/V1 where V1 is the volume of distribution (L).
(§3) The full system of differential equations of the model are the following, where A1 is the amount of uric acid (in mg) in the systemic circulation and A2 is the cumulative amount of uric acid (in mg) excreted in urine:8 dA1/dt=kin1-EmaxCX/EC50+CX-CLIA1/V1-eGFR∗A1/V1∗FEUA+EmaxCV/EC50+CVdA2/dt=eGFR∗A1/V1∗FEUA+EmaxCV/EC50+CVA10=V1kin/CLI+eGFR∗FEUAA20=0 where the initial condition A10 is calculated from steady-state assumption (solving the equation dA1/dt=0 ), and the initial condition for the cumulative amount in urine, A20, is set to zero.
In this work, we consider the extension to a mixed-effects model, with the ability to describe both mean response and variability in the population. In a mixed-effects model, parameters are modeled with statistical distributions to describe variability between individuals. We specified lognormal distributions for model parameters θi as follows:10 θi=θpopexpη where θpop is the typical value of the parameter in the population (median of the population distribution), and η is the random effect, normally distributed with mean zero and standard deviation ω.
The residual error model for concentration of uric acid in serum was an additive model (i.e. b = 0); for uric acid in urine, a combined additive and proportional model was used. […]
A short description of series [3]: Population pharmacokinetic model, oxypurinol. It is filed as in vivo, human. The source says: CL = CLTYP * (1 + log(1+k*DOSE_[…]))
Where CLTYP is typical value of clearance and k is a coefficient for verinurad dose (1/mg).

The target in series [4] is T2, URAT1 (Homo sapiens, UniProt Q96S37).
T2 construct: from tissue; host or cells: kidney (proximal tubule) of human study subjects, in vivo
T2 sequence (Q96S37 1-553): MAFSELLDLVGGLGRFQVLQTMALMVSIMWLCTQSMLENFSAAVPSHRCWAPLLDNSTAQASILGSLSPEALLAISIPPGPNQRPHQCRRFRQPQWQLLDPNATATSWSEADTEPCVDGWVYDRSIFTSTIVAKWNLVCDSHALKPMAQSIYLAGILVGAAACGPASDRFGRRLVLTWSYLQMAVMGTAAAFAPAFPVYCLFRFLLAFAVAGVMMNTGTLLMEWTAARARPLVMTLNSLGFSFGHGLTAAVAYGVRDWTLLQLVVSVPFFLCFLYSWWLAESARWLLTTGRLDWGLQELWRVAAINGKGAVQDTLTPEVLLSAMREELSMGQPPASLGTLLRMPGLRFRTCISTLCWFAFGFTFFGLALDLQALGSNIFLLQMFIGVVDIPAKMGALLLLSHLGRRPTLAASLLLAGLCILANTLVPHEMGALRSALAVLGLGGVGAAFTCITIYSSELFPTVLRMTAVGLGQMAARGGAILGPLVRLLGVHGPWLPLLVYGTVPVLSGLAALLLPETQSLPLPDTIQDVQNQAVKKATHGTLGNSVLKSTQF
The arrangement: method as in PMID 21148271, PMID 18492088. Particulars: fixed, not estimated; consistent with FEUA in URAT1 loss of function mutations; cited from earlier work.

In series [5] the target is T2, URAT1. The series is described as follows: Semi-mechanistic exposure-response uric acid model: verinurad inhibition of uric acid reabsorption (clinical sUA/uUA data). It is filed as in vivo.
Source text: as §1, §2
Key kinetic processes that constitute renal handling of uric acid are glomerular filtration of uric acid and renal excretion of uric acid. Uric acid is freely filtered into the proximal tubule and is reabsorbed via urate transporters back into the systemic circulation [25]. The input rate of filtration (also known as the filtered load) of uric acid into the kidney from the circulation is denoted FLin (mg/h), which is modelled to be equal to the concentration of uric acid in the systemic compartment multiplied by the glomerular filtration flow rate (GFR). In this work, the GFR is approximated using the CKD-EPI formula [26]. In the following equations, estimated GFR (eGFR) is given in L/h (1 ml/min/1.73 m^2 = 0.06 L/h) to have consistent units.
The rate of renal excretion of uric acid is calculated as the product of the input filtration rate and the fractional excretion coefficient (FEUA).6 RR=FLin∗FEUA=eGFR∗CUA∗FEUA
Verinurad increases the excretion rate by inhibiting the reabsorption of uric acid back to the circulation. An Emax model is used to describe the stimulating drug action of the FEUA according to the relationship:7 RR=eGFR∗CUA∗FEUA+EmaxCV/EC50+CV where CV denotes the plasma concentration of verinurad. The value FEUA + Emax is the maximum possible fractional excretion of uric acid achieved with a very large dose of verinurad. The value of EC50 is the plasma concentration of verinurad that results in half-maximal inhibition of reabsorption, i.e. when the fractional excretion is FEUA + Emax/2. The renal excretion rate RR is the rate of accumulation of uric acid in the bladder and can be indirectly estimated by measuring accumulation of uric acid in final, collected urine.
as §3
In this work, we consider the extension to a mixed-effects model, with the ability to describe both mean response and variability in the population. In a mixed-effects model, parameters are modeled with statistical distributions to describe variability between individuals. We specified lognormal distributions for model parameters θi as follows:10 θi=θpopexpη where θpop is the typical value of the parameter in the population (median of the population distribution), and η is the random effect, normally distributed with mean zero and standard deviation ω. […]

T1 sequence (P47989 whole entry): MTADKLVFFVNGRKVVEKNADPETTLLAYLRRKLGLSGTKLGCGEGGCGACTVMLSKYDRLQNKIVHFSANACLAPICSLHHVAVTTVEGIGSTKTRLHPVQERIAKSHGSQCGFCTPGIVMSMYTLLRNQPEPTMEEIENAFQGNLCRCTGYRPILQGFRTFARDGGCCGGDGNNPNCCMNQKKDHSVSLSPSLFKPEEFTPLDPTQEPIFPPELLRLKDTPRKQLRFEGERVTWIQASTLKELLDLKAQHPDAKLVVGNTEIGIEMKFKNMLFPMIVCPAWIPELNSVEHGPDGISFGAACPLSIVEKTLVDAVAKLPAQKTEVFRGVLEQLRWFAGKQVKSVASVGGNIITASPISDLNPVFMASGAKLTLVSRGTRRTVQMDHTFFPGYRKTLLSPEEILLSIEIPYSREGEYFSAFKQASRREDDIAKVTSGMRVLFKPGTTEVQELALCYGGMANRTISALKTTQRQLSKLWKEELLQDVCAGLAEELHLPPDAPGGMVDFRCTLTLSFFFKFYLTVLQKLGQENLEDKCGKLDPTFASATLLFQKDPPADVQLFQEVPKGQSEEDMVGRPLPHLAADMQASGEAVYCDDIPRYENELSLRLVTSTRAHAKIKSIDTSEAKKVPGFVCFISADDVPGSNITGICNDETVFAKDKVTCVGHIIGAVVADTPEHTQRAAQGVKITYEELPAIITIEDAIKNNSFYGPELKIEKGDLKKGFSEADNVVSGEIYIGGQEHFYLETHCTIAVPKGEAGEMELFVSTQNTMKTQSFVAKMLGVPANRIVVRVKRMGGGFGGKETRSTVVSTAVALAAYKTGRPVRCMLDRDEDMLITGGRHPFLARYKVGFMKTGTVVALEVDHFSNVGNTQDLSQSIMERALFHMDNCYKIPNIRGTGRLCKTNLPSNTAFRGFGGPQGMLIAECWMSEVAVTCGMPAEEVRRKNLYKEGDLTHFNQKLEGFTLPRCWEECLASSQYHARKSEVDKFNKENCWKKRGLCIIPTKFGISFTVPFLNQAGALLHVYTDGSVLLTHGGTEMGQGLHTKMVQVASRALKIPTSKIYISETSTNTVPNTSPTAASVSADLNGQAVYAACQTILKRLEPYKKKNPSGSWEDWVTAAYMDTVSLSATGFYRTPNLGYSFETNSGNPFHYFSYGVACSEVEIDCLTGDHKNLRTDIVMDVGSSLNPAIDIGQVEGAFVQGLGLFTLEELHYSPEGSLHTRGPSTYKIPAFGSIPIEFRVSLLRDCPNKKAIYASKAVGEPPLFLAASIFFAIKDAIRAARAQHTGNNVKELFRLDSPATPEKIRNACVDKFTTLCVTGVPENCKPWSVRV

For the compound `Cc1nc(-c2ccc(OCC(C)C)c(C#N)c2)sc1C(=O)O` [febuxostat], the “Emax (maximum inhibition of uric acid production)” value at xanthine oxidase (XO) [1] is on record as 1. For the same compound, at xanthine oxidase (XO) [2], a half-maximal effect (EC50) was put at 0.405 µM. Moreover, the “Febuxostat EC50 difference, healthy volunteers versus hyperuricemic patients” value at xanthine oxidase (XO) [2] (human, in vivo) is listed as “no differences; also recorded: not found to be significantly different”.
With `O=c1[nH]c(=O)c2c[nH]nc2[nH]1` [oxypurinol], the “Emax (maximum inhibition of uric acid production)” value on xanthine oxidase (XO) [1] is reported as 0.84. The EC50 at xanthine oxidase (XO) [2] (plasma concentration giving half-maximal inhibition of production rate, typical value, read-out: EC50 (reducing uric acid production) (converted)) is 85.7 µM. For the same compound, in series [3] (12 mg verinurad, according to the model), the “Decrease of oxypurinol exposure when administered together with verinurad” value is listed as “approximately 30%”. Further, in series [3] (human, in vivo, oral, read-out: Central volume of distribution), the Vd worked out at 45.7 L. The Absorption rate constant in series [3] (oxypurinol after allopurinol dosing, popPK estimate) is 0.3343 h⁻¹.
Turning to `CC(C)(Sc1ccncc1-c1ccc(C#N)c2ccccc12)C(=O)O` [verinurad], at URAT1 [4], the “Emax (maximum increase in fractional excretion of uric acid)” value is 0.7. Moreover, the EC50 at URAT1 [5] (plasma concentration giving half-maximal inhibition of reabsorption, typical value, healthy volunteers, read-out: Verinurad EC50 (reducing uric acid reuptake) (converted)) is 0.0832 µM and 0.0844 µM; on URAT1 [5] (plasma concentration, symptomatic hyperuricemic (gout) patients, read-out: Verinurad EC50, symptomatic hyperuricemic (gout) subjects (converted)), 0.106 µM and 0.107 µM. The “Verinurad EC50 difference, asymptomatic hyperuricemic patients versus healthy volunteers” value on URAT1 [5] (studies D5495C00001 and D5495C00007) is reported as “no significant difference”.
